Data published in patent US20240150370A1, “BICYCLIC PYRIDINE DERIVATIVE” (Sumitomo Pharma Co., Ltd., priority 0001, published 2024).
Where a name gives a salt, the structure may show the parent alone. Read-outs that look alike come from different tables or passages of the source.

Biological target: human TAAR1 receptor (Homo sapiens (Human), UniProt Q96RJ0)
Experiment: Evaluation of agonist activity on human TAAR1 receptor (cAMP assay)
Assay type: cell-based
Details: for activation at 0.1 µM / activation at 1 µM / activation at 10 µM: CHO, 0.5 h, read-out: TAAR1 agonist activity at each concentration (%)
Protocol: TAAR1 is a G protein-coupled receptor that binds to G proteins (Gas), and activation of the TAAR1 receptor by agonists induces an increase in intracellular cAMP levels. Therefore, the agonist activity of the sample on the human TAAR1 receptor was evaluated using the cAMP assay method.
cAMP Hunter™ CHO-K1 TAAR1 Gs Cell Line, a cell expressing human TAAR1 receptor, was purchased. Human TAAR1-expressing CHO cells were seeded in a 96-well plate, and after culturing for 24 hours, a sample dissolved in DMSO was added and incubated at 37° C. for 30 minutes. A sample for cAMP measurement was prepared according to the cAMPHiRange kit protocol. The amount of cAMP produced by the sample was measured by time-resolved fluorescence using EnVision (excitation wavelength: 330 nm, fluorescence wavelength […]/665 nm).
Sample %=100×{(Csamp)−(Cblank)}/{(Ctyramine)−(Cblank)} • Csamp: count of sample, Ctyramine: count of 100 μM tyramine, Cblank: count of blank

[1] = 100 nM, cAMP in human TAAR1-expressing CHO cells, relative to 100 μM tyramine
[2] = 1000 nM, cAMP in human TAAR1-expressing CHO cells, relative to 100 μM tyramine
[3] = 10000 nM, cAMP in human TAAR1-expressing CHO cells, relative to 100 μM tyramine

Sequence of human TAAR1 receptor (Q96RJ0 whole entry): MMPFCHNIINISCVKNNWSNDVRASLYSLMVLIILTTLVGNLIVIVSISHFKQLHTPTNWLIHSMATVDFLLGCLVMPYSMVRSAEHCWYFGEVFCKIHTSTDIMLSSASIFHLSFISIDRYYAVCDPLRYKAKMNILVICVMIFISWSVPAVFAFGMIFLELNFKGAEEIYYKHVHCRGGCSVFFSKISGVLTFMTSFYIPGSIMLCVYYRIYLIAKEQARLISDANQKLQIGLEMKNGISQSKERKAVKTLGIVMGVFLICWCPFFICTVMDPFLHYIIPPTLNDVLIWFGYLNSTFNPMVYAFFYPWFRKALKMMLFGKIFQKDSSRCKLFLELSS

SMILES	activation at 0.1 µM [1]	activation at 1 µM [2]	activation at 10 µM [3]	other results
CCNC[C@H]1c2ncccc2O[C@@H]1C [Example 74]	7%	46%	92%	–
C[C@@H]1[C@H](C)Oc2cccnc2[C@H]1CN (racemic) [Example 65]	0%	28%	67%	–
NC[C@H]1c2ncccc2O[C@H]2CCCC[C@@H]21 (racemic) [Example 33, rac-1-[(5aS,9aR,10S)-6,7,8,9,9a,10-hexahydro-5aH-[1]benzpyrano[3,2-b]pyridine-10-yl]methanamine dihydrochloride]	4%	22%	52%	–
[2H][C@]1(C)Oc2cccnc2[C@@H]1CN (stereo in doubt) [Example 57]	32%	72%	79%	–
CC[C@@H]1C[C@H](CN)c2ncccc2O1 (racemic) [Example 60]	7%	40%	82%	–
NCC1CCNc2cccnc21 (stereo not drawn) [Example 68]	3%	23%	68%	–
Cc1ccc2c(n1)[C@@H](CN)C[C@@H](C)O2 [Example 17]	0%	4%	25%	–
C[C@H](N)[C@H]1c2ncccc2O[C@@H]1C [Example 55]	–	–	–	TAAR1 agonist activity at each concentration (%) [1]: 31%; TAAR1 agonist activity at each concentration (%) [2]: 75%; TAAR1 agonist activity at each concentration (%) [3]: 87%
C[C@@H]1[C@H](CN)c2ncccc2O[C@@H]1C (racemic) [Example 62, rac-1-[(2R,3R,4R)-2,3-dimethyl-3,4-dihydro-2H-pyrano[3,2-b]pyridin-4-yl]methanamine dihydrochloride]	2%	20%	66%	–
NCC1c2nc(F)ccc2OC12CC2 (stereo not drawn) [Example 82]	51%	92%	101%	–
NCC1CCc2c(Cl)ccnc21 (stereo not drawn) [Example 75]	0%	26%	75%	–
C[C@@H]1COc2cccnc2[C@@H]1CN (stereo in doubt) [Example 4, rel-1-[(3S,4S)-3-methyl-3,4-dihydro-2H-pyrano[3,2-b]pyridin-4-yl]methanamine dihydrochloride]	17%	55%	67%	–
[2H]C([2H])([2H])NC[C@H]1c2ncc(F)cc2O[C@@H]1C [Example 80]	17%	48%	62%	–
C[C@H]1[C@H](C)Oc2cccnc2[C@H]1CN (racemic) [Example 64]	0%	7%	40%	–
Cc1ccnc2c1OCCC2CN (stereo not drawn) [Example 70]	0%	23%	57%	–
NCC1CSc2cccnc21 (stereo not drawn) [Example 10]	18%	66%	91%	–
C[C@@H](N)[C@H]1c2ncccc2O[C@@H]1C [Example 56]	–	–	–	TAAR1 agonist activity at each concentration (%) [1]: 23%; TAAR1 agonist activity at each concentration (%) [2]: 67%; TAAR1 agonist activity at each concentration (%) [3]: 82%
NC[C@@H]1c2ncccc2OC12CC2 (single isomer, unassigned) [Example 96, rel-1-[(3′R)-3′H-spiro[cyclopropane-1,2′-furo[3,2-b]pyridine]-3′-yl]methanamine dihydrochloride]	3%	28%	66%	–
Cc1ccc(-c2ccnc3c2CCCC3CN)cc1 (racemic) [Example 89, rac-1-[4-(4-methylphenyl)-5,6,7,8-tetrahydroquinolin-8-yl]methanamine dihydrochloride]	0%	23%	48%	–
C[C@H]1[C@H](CN)c2ncccc2O[C@@H]1C (racemic) [Example 63]	3%	22%	62%	–

SMILES	activation at 0.1 µM [1]	activation at 1 µM [2]	activation at 10 µM [3]	other results
C[C@H]1C[C@@H](CN)c2ncccc2S1 (racemic) [Example 13]	4%	31%	63%	–
NC[C@H]1CCSc2cccnc21 (single isomer, unassigned) [Example 39, dihydrochloride]	1%	12%	48%	–
NC[C@H]1c2nc(F)ccc2OC12CC2 (single isomer, unassigned) [Example 103, rel-1-[(3'S)-5′-fluoro-3′H-spiro[cyclopropane-1,2′-furo[3,2-b]pyridine]-3′-yl]methanamine dihydrobromide]	60%	84%	89%	–
NC[C@H]1c2ncc(Cl)cc2OC12CC2 (single isomer, unassigned) [Example 99, rel-1-[(3'S)-6′-chloro-3′H-spiro[cyclopropane-1,2′-furo[3,2-b]pyridine]-3′-yl]methanamine dihydrochloride]	9%	39%	62%	–
Cc1ccnc2c1CCCC2CN (racemic) [Example 92, rac-1-(4-methyl-5,6,7,8-tetrahydroquinolin-8-yl)methanamine]	0%	0%	0%	–
CC1(C)Oc2ccc(F)nc2C1CN (racemic) [Example 106, rac-1-(5-fluoro-2,2-dimethyl-2,3-dihydrofuro[3,2-b]pyridin-3-yl)methanamine dihydrobromide]	38%	70%	78%	–
[2H][C@]1(C)Oc2cccnc2[C@H]1CN (relative stereo) [Example 95, rel-1-[(2R,3S)-2-methyl(2-^2H)-2,3-dihydrofuro[3,2-b]pyridin-3-yl]methanamine dihydrochloride]	59%	90%	96%	–
Cc1cnc2c(c1)O[C@H](C)[C@H]2CN [Example 28]	7%	38%	71%	–
C[C@H]1Oc2cccnc2[C@H]1CN (racemic) [Example 36, rac-1-[(2R,3R)-2-methyl-2,3-dihydrofuro[3,2-b]pyridin-3-yl]methanamine dihydrochloride]	0%	20%	67%	–
C[C@@H]1Oc2cccnc2[C@H]1CN [Example 19]	2%	13%	51%	–
NCC1c2nc(Cl)ccc2OC12CC2 (stereo not drawn) [Example 81]	48%	86%	95%	–
CC(C)[C@H]1Oc2cccnc2[C@@H]1CN (racemic) [Example 21]	0%	23%	81%	–
CCCNC[C@H]1c2ncccc2O[C@@H]1C [Example 72]	0%	4%	23%	–
C[C@H]1COc2cccnc2[C@@H]1CN (racemic) [Example 1, rac-1-[(3R,4S)-3-methyl-3,4-dihydro-2H-pyrano[3,2-b]pyridin-4-yl]methanamine dihydrochloride]	2%	18%	54%	–
Cc1ccc2c(n1)[C@H](CN)C1(CC1)O2 (single isomer, unassigned) [Example 101, rel-1-[(3'S)-5′-methyl-3′H-spiro[cyclopropane-1,2′-furo[3,2-b]pyridine]-3′-yl]methanamine dihydrochloride]	62%	79%	84%	–
NC[C@@H]1c2ncc(Cl)cc2OC12CC2 (single isomer, unassigned) [Example 98, rel-1-[(3′R)-6′-chloro-3′H-spiro[cyclopropane-1,2′-furo[3,2-b]pyridine]-3′-yl]methanamine dihydrochloride]	1%	9%	37%	–
CC1(C)COc2cccnc2C1CN (stereo not drawn) [Example 53]	–	–	–	activation at 0.1 µM: 0%; activation at 1 µM: 3%; activation at 10 µM: 18%
C[C@@H]1C[C@@H](CN)c2ncc(F)cc2O1 [Example 66]	21%	66%	82%	–
COC[C@H]1Oc2cccnc2[C@@H]1CN (racemic) [Example 32]	1%	4%	22%	–
